Assay results reported in patent EP0885869A1, “THERAPEUTIC AGENT FOR DIABETES” (Japan Tobacco Inc., priority 1996, dated 1997).
Where two headings read alike, the source gives them in different places.

Columns and labels:
[1] = test system: fasted rats; experiment: Glucose tolerance test using fasted rats; assay type: in vivo, Male Wistar rats; details: for inhibition in vivo at 30 mg/kg / inhibition in vivo at 100 mg/kg / inhibition in vivo at 10 mg/kg / inhibition in vivo at 1 mg/kg: Rattus norvegicus, 30 min before glucose loading (1 g/kg i.p.); for inhibition in vivo at 30 mg/kg: dose 30 mg/kg oral; for inhibition in vivo at 100 mg/kg: dose 100 mg/kg oral; for inhibition in vivo at 10 mg/kg: dose 10 mg/kg oral; for blood glucose in hyperglycemia at 30 min after glucose loading / blood glucose level 120 min later when hyperglycemia was not observed: oral administration, versus control, Fig. 1 (Example 93), Fig. 2 (Example 65, various doses); for inhibition in vivo at 1 mg/kg: dose 1 mg/kg oral
Description: Glucose tolerance test using fasted rats
Glucose (1 g/kg) was intraperitoneally administered and blood (0.2 ml) was taken at 30, 60 and 120 minutes later from the tail vein. […] As a control, used was carboxymethylcellulose. The suppression of increase in blood glucose was expressed by inhibition ratio (%) in the group administered with test drug, relative to the increase in blood glucose in the control group at 30 min after glucose loading, which was taken as 100%. The blood glucose after 120 min was also shown by the ratio (%) of changes relative to the control.

[2] = test system: fasted rats; experiment: Effects on blood glucose level of fasted rats; assay type: in vivo, Male Wistar rats; details: oral administration to rats fasted for 16 hr, blood at 30, 60 and 120 minutes; Fig. 4
Description: Effects on blood glucose level of fasted rats
As a control, used was carboxymethylcellulose, and blood glucose after administration of tolbutamide and the compounds of the present invention was determined.

[3] = test system: fasted rats
[4] = 0.5 h, inhibition of increase in blood glucose relative to control at 30 min, read-out: ratio of decrease at 30 min later(%)
[5] = 2 h, blood glucose after 120 min, ratio of changes relative to control, read-out: ratio of decrease at 120 min later(%)

In the case of `CC(=O)CCC(=O)c1ccc(CO)cc1` [Example 20, 1-(4-hydroxymethylphenyl)-1,4-pentanedione], the inhibition in vivo at 30 mg/kg [1, 4] is reported as 21.3% and the inhibition in vivo at 30 mg/kg [1, 5] is reported as 10.7%.

For `CC(=O)CCC(=O)C1(C)CCCCC1` [Example 6, 1-(1-methyl-1-cyclohexyl)-1,4-pentanedione], the inhibition in vivo at 100 mg/kg [1, 4] was 19.8% and the inhibition in vivo at 100 mg/kg [1, 5] was 15%.

Compound `O=C(O)CCC(=O)c1ccc2ccccc2c1` [Example 74, 4-(2-naphthyl)-4-oxobutanoic acid] has an inhibition in vivo at 10 mg/kg [1, 4] of 21.5% and an inhibition in vivo at 10 mg/kg [1, 5] of -0.2%.

Work on `O=C(O)CCC(=O)c1ccc(CO)cc1` [Example 49, 4-[4-(hydroxymethyl)phenyl]-4-oxobutanoic acid] yielded an inhibition in vivo at 10 mg/kg [1, 4] of 25.2% and an inhibition in vivo at 10 mg/kg [1, 5] of 2.2%.

With `CC(=O)CCC(=O)c1ccccc1` [Example 1, 1-phenyl-1,4-pentanedione] the inhibition in vivo at 30 mg/kg [1, 4] was 18.9%, the inhibition in vivo at 100 mg/kg [1, 4] was 14.9% and the inhibition in vivo at 30 mg/kg [1, 5] was 4.1%. For the same compound, the inhibition in vivo at 100 mg/kg [1, 5] was 1.1%.

`C[C@H]1CC[C@H](C(=O)CCC(=O)O)CC1` [Example 65, trans-4-(4-methylcyclohexyl)-4-oxobutanoic acid] showed an inhibition in vivo at 10 mg/kg [1, 4] of 31.7%, an inhibition in vivo at 30 mg/kg [1, 4] of 41.2% and an inhibition in vivo at 10 mg/kg [1, 5] of 5%. For the same compound, the inhibition in vivo at 30 mg/kg [1, 5] was 10.5%, the “blood glucose in hyperglycemia at 30 min after glucose loading” value [1] was “tends to show significant decrease in the blood glucose level” and the “blood glucose level 120 min later when hyperglycemia was not observed” value [1] was “does not unnecessarily lower the blood glucose level”.

For `CC1(C(=O)c2ccc(-c3ccccc3)cc2)CCC(=O)O1` (single isomer, unassigned; (-)) [Example 93, (-)-dihydro-5-methyl-5-(4'-phenylbenzoyl)-2(3H)-furanone], the “blood glucose in hyperglycemia at 30 min after glucose loading” value [1] was “significantly decreased the blood glucose”, the “blood glucose level 120 min later when hyperglycemia was not observed” value [1] was “did not unnecessarily lower the blood glucose level” and the fasting blood glucose [2] was “did not lower the fasting blood glucose”.

With `CC(=O)NCC(=O)c1ccccc1` [Example 80, 2-acetaminoacetophenone] the inhibition in vivo at 1 mg/kg [1, 4] was 15.5%, the inhibition in vivo at 10 mg/kg [1, 4] was 12.4% and the inhibition in vivo at 1 mg/kg [1, 5] was -2.4%. It also gave an inhibition in vivo at 10 mg/kg [1, 5] of -1.5%.

`O=C(CC(C(=O)O)C(=O)O)c1ccc(-c2ccccc2)cc1` [Example 69, 2-[2-(4-biphenylyl)-2-oxoethyl]propanedioic acid] was tested, and the inhibition in vivo at 1 mg/kg [1, 4] was 22.1%, the inhibition in vivo at 10 mg/kg [1, 4] was 24.6% and the inhibition in vivo at 1 mg/kg [1, 5] was 4.9%. It also gave an inhibition in vivo at 10 mg/kg [1, 5] of 3%.

`CC(=O)CCC(=O)c1ccc(-c2ccccc2)cc1` [Example 2, 1-(4-biphenylyl)-1,4-pentanedione] gave an inhibition in vivo at 100 mg/kg [1, 4] of 29.7% and an inhibition in vivo at 100 mg/kg [1, 5] of 3.8%.

Compound `O=C(O)CCC(=O)c1ccccc1` [Example 46, 4-oxo-4-phenylbutanoic acid] has an inhibition in vivo at 1 mg/kg [1, 4] of 22.5%, an inhibition in vivo at 10 mg/kg [1, 4] of 19.8% and an inhibition in vivo at 1 mg/kg [1, 5] of 10.3%. The inhibition in vivo at 10 mg/kg [1, 5] was -7%.

In the case of `O=C(O)CCC(=O)c1ccc(-c2ccccc2)cc1` [Example 47, 4-(4-biphenylyl)-4-oxobutanoic acid], the inhibition in vivo at 1 mg/kg [1, 4] is reported as 26.5%, the inhibition in vivo at 10 mg/kg [1, 4] is reported as 20.7% and the inhibition in vivo at 30 mg/kg [1, 4] is reported as 29.1%. For the same compound, the inhibition in vivo at 1 mg/kg [1, 5] was 14.7%, the inhibition in vivo at 10 mg/kg [1, 5] was 4.7% and the inhibition in vivo at 30 mg/kg [1, 5] was 6.8%.

`CCCCNC(=O)NS(=O)(=O)c1ccc(C)cc1` [tolbutamide] was tested, and the fasting blood glucose [2] was “lowered the fasting blood glucose”, the “effect as a therapeutic agent for diabetes for treating hyperglycemia” value ([3]; oral, in the dose that does not cause hypoglycemia, Fig. 3) was “did not show effective results” and the “blood glucose 120 min later” value ([3]; rat, in vivo, po) was “induced hypoglycemia”.

Work on `O=C1CC(C(=O)c2ccccc2)CO1` (racemic) [Example 81, (±)-4-benzoyldihydro-2(3H)-furanone] yielded an inhibition in vivo at 1 mg/kg [1, 4] of 23.7%, an inhibition in vivo at 10 mg/kg [1, 4] of 20.7% and an inhibition in vivo at 1 mg/kg [1, 5] of 1.7%. For the same compound, the inhibition in vivo at 10 mg/kg [1, 5] was 6%.

`O=C(O)CCC(=O)C1CCCCC1` [Example 58, 4-cyclohexyl-4-oxobutanoic acid] was tested, and the inhibition in vivo at 1 mg/kg [1, 4] was 12.5%, the inhibition in vivo at 10 mg/kg [1, 4] was 26.1% and the inhibition in vivo at 30 mg/kg [1, 4] was 26.7%. It also gave an inhibition in vivo at 1 mg/kg [1, 5] of -0.9%, an inhibition in vivo at 10 mg/kg [1, 5] of 4.8% and an inhibition in vivo at 30 mg/kg [1, 5] of -2.8%.

With `O=C1CC(C(=O)c2ccc(-c3ccccc3)cc2)CO1` (racemic) [Example 82, (±)-dihydro-4-(4'-phenylbenzoyl)-2(3H)-furanone] the inhibition in vivo at 1 mg/kg [1, 4] was 24.6% and the inhibition in vivo at 1 mg/kg [1, 5] was -8.2%.

`CC1(C(=O)CCC(=O)O)CCCCC1` [Example 61, 4-(1-methylcyclohexyl)-4-oxobutanoic acid] was tested, and the inhibition in vivo at 30 mg/kg [1, 4] was 31.5% and the inhibition in vivo at 30 mg/kg [1, 5] was -5.7%.

`CC(=O)CCC(=O)C1CCCCC1` [Example 5, 1-cyclohexyl-1,4-pentanedione] showed an inhibition in vivo at 100 mg/kg [1, 4] of 21.4% and an inhibition in vivo at 100 mg/kg [1, 5] of 7.3%.
